Results published in US20250290928A1, “METHOD, KIT AND DEVICE FOR DETECTING EXTRACELLULAR VESICLES” (priority 2022, published 2025).
Primed or numbered codes have the meaning given here. *: point of attachment. Dabcyl′ = 4-((4-(dimethylamino)phenyl)azo)benzoic acid, CN(C)c1ccc(/N=N/c2ccc(C(=O)*)cc2)cc1; 5FAM = O=C1OC2(c3ccc(O)cc3Oc3cc(O)ccc32)c2ccc(C(=O)*)cc21

Key:
[1] = system: ADAM in the MDA-MB-231-derived extracellular vesicles; experiment: Detection of ADAM activity of MDA-MB-231-derived extracellular vesicles with 96-well plate; type: biochemical, Human; conditions: Example 39, EV 3.3 μg/mL, reporter 5 μM, buffer (4)
Protocol: The MMP14 activity was evaluated with a 96-well plate (manufactured by Thermo Fisher Scientific Inc., model number: 137101). A fluorescence intensity was measured with a fluorescence plate reader (Synergy MX, manufactured by BioTek Instruments, Inc.) at […] every 5 min for 1 hour. For measurement wavelengths, an excitation wavelength of 485±20 nm and a fluorescence wavelength of 528±20 nm were used.
In addition, for detection of ADAM activity, 1 mM EPDAB010 or PEPDAB014 was diluted with the buffer (4) to prepare a 10 μM ADAM detection solution. In addition, for detection of Cathepsin D activity, 1 mM CathD was diluted with the buffer (4) to prepare a 10 μM Cathepsin D detection solution.
50 μL of the ADAM detection solution or the Cathepsin D detection solution was added to 50 μL of each of the samples, a reaction was performed at 30° C., and activity was evaluated.

[2] = system: ADAM in the MDA-MB-231-derived extracellular vesicles; experiment: Digital detection of MDA-MB-231-derived extracellular vesicles through ADAM activity in wells; type: biochemical, Human; conditions: for Extracellular vesicle concentration: at a concentration of x1, 50 fL; for Expected value λ / Number of positives / Positive ratio: Example 40, EV 2 μg/mL, reporter 5 μM, 30° C.
Protocol: The concentration of the solution is 4 μg/mL.
50 μL of the ADAM or Cathepsin D detection solution was added to 50 μL of the sample to provide a reaction solution for wells.

[3] = system: β-galactosidase activity inherent in the MDA-MB-231-derived extracellular vesicles; experiment: Evaluation of β-galactosidase activity of MDA-MB-231-derived extracellular vesicles in 96-well plate; type: biochemical, Human; conditions: Example 33, 30° C., no CD9/CD63/CD81 detection system
Protocol: For detection of MMP14 activity, 1 mM Custom #2 and a 100 µM resorufin β-D-galactopyranoside solution were diluted with the buffer ([…]) containing 10 μM Custom #2 and 5 μM resorufin β-D-galactopyranoside. In addition, the solution was diluted 2-fold with the buffer (4) to prepare a detection solution (2). Nonfluorescent resorufin β-D-galactopyranoside is degraded by β-galactosidase to produce fluorescent resorufin. In this case, the maximum wavelengths of excitation and fluorescence of resorufin are 570 nm and 585 nm, respectively.
In addition, 50 μL of the detection solution (1) was added to 50 μL of each of the prepared standard samples with seven concentrations and the sample for BG measurement, and the resultant solution was used in measurement of MMP14 activity and β-galactosidase activity with a 96-well plate.
Evaluation was performed in the same manner as in Example 1 except that the reaction temperature was set to 30° C. ΔRFU was calculated by subtracting the measured value of the sample for BG measurement from the measured value of each of the samples. In this case, resorufin produced by β-galactosidase activity was simultaneously measured at an excitation wavelength of 545±20 nm and a fluorescence wavelength of 590±20 nm, and ΔRFU was calculated similarly.

[4] = system: CD9/CD63/CD81 in the extracellular vesicles; experiment: Digital CD9/CD63/CD81 sandwich detection with biotinylated detection antibody and streptavidin-conjugated β-galactosidase; type: binding, Human; conditions: Example 33, 30° C., 4 h
Protocol: An anti-CD9 antibody (ab58989), an anti-CD63 antibody (ab59479), and an anti-CD81 antibody (ab59477) were buffer-exchanged into Biotinylation Reaction Buffer to provide an antibody solution. A biotinylation reagent NHS-PEG4-Biotin was added to the solution, and the mixture was stirred and then subjected to a reaction at room temperature for 30 minutes. After that, the resultant was washed with Biotinylation Reaction Buffer, and then recovered with Biotinylation Reaction Buffer to provide a biotinylated detection antibody solution. The biotinylated detection antibody solution was stored at 4° C. until use.
For detection of MMP14 activity, 1 mM Custom #2 and a 100 µM resorufin β-D-galactopyranoside solution were diluted with the buffer (4) to prepare a MMP14 and CD9/CD63/CD81 cocktail detection solution (1) containing 10 μM Custom #2 and 5 μM resorufin β-D-galactopyranoside. In addition, the solution was diluted 2-fold with the buffer (4) to prepare a detection solution (2). Nonfluorescent resorufin β-D-galactopyranoside is degraded by β-galactosidase to produce fluorescent resorufin. In this case, the maximum wavelengths of excitation and fluorescence of resorufin are 570 nm and 585 nm, respectively.
The observation of fluorescence derived from each fluorescent substance was performed under the same conditions as in Example 19 to acquire a fluorescence image. In this case, a TRITC filter was used in the observation of the fluorescence from resorufin.

Dabcyl-SPLAQAVRSSK (5FAM)-NH2 ({Dabcyl′}-SPLAQAVRSSK(5FAM)-NH2; SMILES CC(C)C[C@H](NC(=O)[C@@H]1CCCN1C(=O)[C@H](CO)NC(=O)c1ccc(/N=N/c2ccc(N(C)C)cc2)cc1)C(=O)N[C@@H](C)C(=O)N[C@@H](CCC(N)=O)C(=O)N[C@@H](C)C(=O)N[C@H](C(=O)N[C@@H](CCCNC(=N)N)C(=O)N[C@@H](CO)C(=O)N[C@@H](CO)C(=O)N[C@@H](CCCCNC(=O)c1ccc2c(c1)C(=O)OC21c2ccc(O)cc2Oc2cc(O)ccc21)C(N)=O)C(C)C) [PEPDAB010]
Fluorescence change after 2 hours of reaction at 30° C. [1]: 74,285 ΔRFU | Expected value λ (×1) ([2]; Example 40, 4 hr): 0.4984 | Extracellular vesicle concentration ([2]; Example 40, 4 hr): 9.968e+09 mL⁻¹ | Expected value λ (×1) ([2]; Example 40, 24 hr): 0.8509 | Extracellular vesicle concentration ([2]; Example 40, 24 hr): 1.702e+10 mL⁻¹ | Expected value λ ([2]; 4 hr): 0.09968 | Number of positives ([2]; 4 hr): 2,664 | Positive ratio ([2]; 4 hr): 0.09487 | Expected value λ ([2]; 24 hr): 0.1702 | Number of positives ([2]; 24 hr): 4,394 | Positive ratio ([2]; 24 hr): 0.1565

O=c1ccc2nc3ccc(O[C@@H]4O[C@H](CO)[C@H](O)[C@H](O)[C@H]4O)cc3oc-2c1 [resorufin β-D-galactopyranoside]
β-galactosidase activity (temporal changes in fluorescence intensity) [3]: the activity was not able to be detected at all | Expected value λ (CD9/CD63/CD81) ([4]; EV 0 (BG)): 0.00927 | Number of positives (CD9/CD63/CD81) ([4]; EV 0 (BG)): 20 | Expected value λ (CD9/CD63/CD81) ([4]; EV X1 (sample 10 μg/mL)): 2.86 | Number of positives (CD9/CD63/CD81) ([4]; EV X1 (sample 10 μg/mL)): 2,166 | Expected value λ (CD9/CD63/CD81) ([4]; EV X1/3): 1.87 | Number of positives (CD9/CD63/CD81) ([4]; EV X1/3): 2,315 | Expected value λ (CD9/CD63/CD81) ([4]; EV X1/9): 0.750 | Number of positives (CD9/CD63/CD81) ([4]; EV X1/9): 1,544 | Expected value λ (CD9/CD63/CD81) ([4]; EV X1/27): 0.339 | Number of positives (CD9/CD63/CD81) ([4]; EV X1/27): 725 | Expected value λ (CD9/CD63/CD81) ([4]; EV X1/81): 0.0928 | Number of positives (CD9/CD63/CD81) ([4]; EV X1/81): 144 | Expected value λ (CD9/CD63/CD81) ([4]; EV X1/243): 0.0427 | Number of positives (CD9/CD63/CD81) ([4]; EV X1/243): 78 | Expected value λ (CD9/CD63/CD81) ([4]; EV X1/729): 0.0240 | Number of positives (CD9/CD63/CD81) ([4]; EV X1/729): 44
